Assay results as given in patent publication US20230302159A1, “COMPOUNDS AND COMPOSITIONS FOR TUMOR DETECTION AND SURGICAL GUIDANCE” (Cornell University, priority 2020, published 2023).
Several values for one entry are separate records, joined by “and”; a condition that tells them apart may be missing. Identical values can stand only once. Entries after “also recorded” stand apart in the source; their conditions may differ.

Experiments:
[1] = tested on: SKOV3/GFP-Luc subcutaneous tumors; test: In vivo fluorescence imaging of subcutaneous tumors by spraying, SKOV3/GFP-Luc model; parameters: species or system mice; conditions: for signal to background ratio: 2 μM
Description: (§1) Tumor models of subcutaneous implants and peritoneal implants. All animal procedures were carried out in compliance with the approved animal protocols and guidelines of the Institutional Animal Care and Use Committee at Weil Cornell Medical College. Mice (female, SCID Hairless Outbred Mouse) were purchased from Charles River (Wilmington, MA). To establish the subcutaneous implants, a suspension of OVASAHO/RFP-Luc cells (5.0×10^6) or SKOV3/GFP-Luc cells (5.0×10^6) in 100 μL PBS was inoculated into each flank of the female nude mice on both sides. After two weeks, the tumor implants grew to around 5 mm in size and were used for the spray experiment. To establish the peritoneal implants, SKOV3/GFP-Luc cells (5.0×10^6) suspended in […] were injected into the abdominal cavities of the female nude mice. After two weeks, the tumor growth was examined with an in vivo bioluminescence imaging system followed by peritoneal injection of D-luciferin potassium solution (200 μL, 15 mg/mL) for 10 min. Generally, mice bearing multiple disseminated peritoneal implants of 5 mm size in diameter were used for the experiment.
In vivo fluorescence imaging of subcutaneous tumors. Two subcutaneous tumor models (OVASAHO/RFP-Luc and SKOV3/GFP-Luc) were used to compare the imaging capability of CypH-11, CypH-1, and Cy7. Mice bearing the subcutaneous implants were anesthetized in an induction chamber using 2% isoflurane, and anesthesia was maintained with 1.5-2.0% isoflurane via a nose cone. Sterile surgical tools were used to remove skin around the tumor. The mice images were captured using an IVIS SpectrumCT System from PerkinElmer (Waltham, MA). OVASAHO/RFP-Luc and SKOV3/GFP-Luc tumors were captured under an RFP channel (Excitation: 520-550 nm and Emission: 570-590 nm) and a GFP channel (Excitation: 450-480 nm and Emission: 510 530 nm), respectively. A Cy7 channel (Excitation: 730-760 nm and Emission: 790-810 nm) was applied to evaluate the fluorescence generated by CypH-11, CypH-1, and Cy7. After skin removal, the tumor area and the background fluorescence under the Cy7 channel were measured first. Solutions of CypH-11, CypH-1, and Cy7 (2 μM each) were sprayed on the surgical area, and the fluorescence of the Cy7 channel was measured continuously at each time point (1, 3, 5, 7, 10, and 15 min). Ten, five, and three OVASAHO tumors were used to evaluate CypH-11, CypH-1, and Cy7, respectively. Six SKOV3 tumors were used to evaluate CypH-11. To evaluate the tumor-to-normal tissue ratio, the whole tumor regions and the adjacent open-skin areas were drawn, and their fluorescence intensity was acquired by the IVIS software. Tumor-to-normal tissue ratio value was calculated as the average fluorescence intensity of the tumor divided by that of the normal area. Also, tumor-bearing mice were euthanized by carbon dioxide inhalation or a high dose of isoflurane (5%). The subcutaneous tumors and the adjacent muscles were then extracted, and CypH-11 (2 μM) was sprayed onto them. Images were subsequently captured under GFP/RFP/Cy7 channels.
(§2) Histology. To gain knowledge about the CypH-11 distribution in tumors after administration via spray and i.p. injection, the tumors were excised and analyzed. […] The slides were imaged first with a fluorescence microscope (EVOS, Thermofisher Scientific, Waltham, MA) and were subsequently stained with hematoxylin and eosin Y solution (H&E) to assess their histologic alterations under a light microscope.

[2] = tested on: SKOV3/GFP-Luc disseminated peritoneal tumors; test: In vivo fluorescence imaging of disseminated peritoneal tumors after IP administration; parameters: species or system mice
Description: as §1
In vivo fluorescence imaging of disseminated peritoneal tumors. […] The fluorescence images were captured for the whole cavity under both the GFP and Cy7 channels. […] Regions of interest (ROI, n=6, and average area=0.28±0.1 cm^2) within the tumor nodules and in the adjacent normal areas in the peritoneal cavity were drawn and calculated for tumor-to-normal tissue ratio.
as §2

## CC(C)N(C)c1ccc(OC2=C(/C=C/C3=[N+](C(C)C)c4ccccc4C3(C)C)CCC/C2=C\C=C2\N(C(C)C)c3ccccc3C2(C)C)cc1.[I-] [CypH-11]
[1]; 1 min after spray
  signal to background ratio: 1.3
[1]; 5 min after spray
  signal to background ratio: 1.4
[1]; 10 min after spray
  signal to background ratio: 1.6
[1]; sprayed, 15 min, histology
  NIR signal depth in tumor after spray: 2-3 layers of cells
[1]; tumor and muscle excised, held 20 min, then sprayed
  CypH-11 signal when sprayed ex vivo on excised 20-min old dead tissues: no NIR signal could be detected; also recorded: No CypH-11 signal in tumor or muscle was observed
[2]; 1 h post IP, 200 μL 2 μM in PBS
  tumor signal higher than the background of the peritoneum, liver, and intestine: 3- to 4 fold
[2]; 1 h post IP, no washing
  size of smallest tumors detected: 1 mm and < 1 mm
[2]; IP, within an hour, histology
  NIR signal depth in tumor after IP injection: 6-7 layers of cells
